Experimental data reported in ChEMBL document CHEMBL1201862, “PubChem BioAssay data set” (2004).
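All cell lines were grown in 96-well plates and treated with compound for 48 hours. The concentration for 50% growth inhibition is given as GI50.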 Activity calls are given as the source filed them. No stated cut-off is given here; in the data, active = GI50 up to about 1.1 µM and inactive = higher.

Assays:
Assay in all cases: NCI-60 cell line screen, 48 h
[1] = system: COLO 205
[2] = system: HCC 2998
[3] = system: HCT-15
[4] = system: HL-60
[5] = system: HOP-62
[6] = system: LOX IMVI
[7] = system: MCF7
[8] = system: NCI-H460
[9] = system: NCI/ADR-RES
[10] = system: OVCAR-4
[11] = system: OVCAR-8
[12] = system: SF-295
[13] = system: SF-539
[14] = system: SK-MEL-28
[15] = system: SN12C
[16] = system: SNB-19
[17] = system: SW-620
[18] = system: T47D
[19] = system: TK-10
[20] = system: UACC-257

| Structure (SMILES) | GI50 [1] | GI50 [2] | GI50 [3] [µM] | GI50 [4] | GI50 [5] | GI50 [6] | GI50 [7] | GI50 [8] | GI50 [9] | GI50 [10] | GI50 [11] | GI50 [12] | GI50 [13] | GI50 [14] | GI50 [15] | GI50 [16] | GI50 [17] | GI50 [18] | GI50 [19] | GI50 [20] |
| --- | --- | --- | --- | --- | --- | --- | --- | --- | --- | --- | --- | --- | --- | --- | --- | --- | --- | --- | --- | --- |
| COC(=O)CNC(=O)CCSc1nnc(COc2ccc(Cl)cc2)n1-c1ccccc1 | 32.1 µM (inactive) | 42.9 µM (inactive) | 74.6 | 30 µM (inactive) | > 100 µM (inactive) | 29.1 µM (inactive) | 71.3 µM (inactive) | 31.4 µM (inactive) | 42.6 µM (inactive) | 61.1 µM (inactive) | 34.9 µM (inactive) | 58.5 µM (inactive) | 91.8 µM (inactive) | 23.7 µM (inactive) | 20.3 µM (inactive) | > 100 µM (inactive) | 39.5 µM (inactive) | 25.9 µM (inactive) | 17.5 µM (inactive) | 19.1 µM (inactive) |
| CCSc1nc(N2CCOCC2)c2cn[nH]c2n1 | 39.7 µM (inactive) | > 100 µM (inactive) | 65.5 | > 100 µM (inactive) | > 100 µM (inactive) | 32.4 µM (inactive) | 44.9 µM (inactive) | 49.9 µM (inactive) | > 100 µM (inactive) | 62.5 µM (inactive) | > 100 µM (inactive) | 54.8 µM (inactive) | > 100 µM (inactive) | 88.5 µM (inactive) | 52.5 µM (inactive) | > 100 µM (inactive) | > 100 µM (inactive) | 9.73 µM (inactive) | 47.8 µM (inactive) | > 100 µM (inactive) |
| N#CC1N(C(=O)c2ccc(F)cc2)c2ccccc2N1C(=O)c1ccc(F)cc1 | 21.8 µM (inactive) | 39.7 µM (inactive) | 31.3 | 40.3 µM (inactive) | > 100 µM (inactive) | 29 µM (inactive) | 33 µM (inactive) | 38.2 µM (inactive) | 26.7 µM (inactive) | 35.7 µM (inactive) | 48.1 µM (inactive) | > 100 µM (inactive) | 62.7 µM (inactive) | 43.9 µM (inactive) | 77.8 µM (inactive) | > 100 µM (inactive) | 47.9 µM (inactive) | 27.2 µM (inactive) | 50.9 µM (inactive) | 67.6 µM (inactive) |
| CC1(C)OC2CN(C(=O)OCc3ccccc3)C(CO)C2O1 (stereo not drawn) | > 100 µM (inactive) | > 100 µM (inactive) | > 100 | > 100 µM (inactive) | > 100 µM (inactive) | > 100 µM (inactive) | > 100 µM (inactive) | > 100 µM (inactive) | > 100 µM (inactive) | > 100 µM (inactive) | > 100 µM (inactive) | > 100 µM (inactive) | > 100 µM (inactive) | > 100 µM (inactive) | > 100 µM (inactive) | > 100 µM (inactive) | > 100 µM (inactive) | > 100 µM (inactive) | > 100 µM (inactive) | > 100 µM (inactive) |
| COc1ccc(COCC[C@H](C)OC2OC(CO[Si](C)(C)C(C)(C)C)C(O)C(O)C2O)cc1 (stereo partly drawn) | > 100 µM (inactive) | > 100 µM (inactive) | > 100 | > 100 µM (inactive) | > 100 µM (inactive) | > 100 µM (inactive) | > 100 µM (inactive) | > 100 µM (inactive) | > 100 µM (inactive) | > 100 µM (inactive) | > 100 µM (inactive) | > 100 µM (inactive) | > 100 µM (inactive) | > 100 µM (inactive) | > 100 µM (inactive) | > 100 µM (inactive) | > 100 µM (inactive) | > 100 µM (inactive) | > 100 µM (inactive) | > 100 µM (inactive) |
| O=C(/C=C/c1ccc(/C=C/C(=O)c2ccc(O)cc2)cc1)c1ccc(O)cc1 | > 100 µM (inactive) | > 100 µM (inactive) | > 100 | > 100 µM (inactive) | > 100 µM (inactive) | 33.8 µM (inactive) | > 100 µM (inactive) | > 100 µM (inactive) | > 100 µM (inactive) |  | > 100 µM (inactive) | > 100 µM (inactive) | > 100 µM (inactive) | > 100 µM (inactive) | > 100 µM (inactive) | > 100 µM (inactive) | > 100 µM (inactive) | > 100 µM (inactive) | > 100 µM (inactive) | > 100 µM (inactive) |
| NS(=O)(=O)c1ccc(NC(=S)N/C=C2\C(=O)Nc3ccccc3C2=O)cc1 | > 100 µM (inactive) | > 100 µM (inactive) | > 100 | 2.07 µM (inactive) | > 100 µM (inactive) | > 100 µM (inactive) | > 100 µM (inactive) | > 100 µM (inactive) | > 100 µM (inactive) | > 100 µM (inactive) | > 100 µM (inactive) | > 100 µM (inactive) | > 100 µM (inactive) | > 100 µM (inactive) | > 100 µM (inactive) | > 100 µM (inactive) | > 100 µM (inactive) | > 100 µM (inactive) | > 100 µM (inactive) | > 100 µM (inactive) |
| Cc1ccc(C2=Nc3c(c(C)nn3-c3ccccc3)N=C(C(=O)O)C2)cc1 | > 10 µM (inactive) | > 10 µM (inactive) | > 10 | > 10 µM (inactive) | > 10 µM (inactive) | > 10 µM (inactive) | > 10 µM (inactive) | > 10 µM (inactive) | > 10 µM (inactive) | > 10 µM (inactive) | > 10 µM (inactive) | > 10 µM (inactive) | > 10 µM (inactive) | > 10 µM (inactive) | > 10 µM (inactive) | > 10 µM (inactive) | > 10 µM (inactive) | > 10 µM (inactive) | > 10 µM (inactive) | > 10 µM (inactive) |
| C=CCC(C(=O)Nc1cccc2nc[nH]c12)C(=O)OCC (stereo not drawn) |  | > 100 µM (inactive) | > 100 | 33.2 µM (inactive) | > 100 µM (inactive) | > 100 µM (inactive) | > 100 µM (inactive) | > 100 µM (inactive) | 83.6 µM (inactive) | 43.1 µM (inactive) | > 100 µM (inactive) | > 100 µM (inactive) | > 100 µM (inactive) | > 100 µM (inactive) | > 100 µM (inactive) | > 100 µM (inactive) | > 100 µM (inactive) | > 100 µM (inactive) | > 100 µM (inactive) | > 100 µM (inactive) |
| O=c1[nH]c2nc3ccccc3c(=O)n2/c1=C/c1ccc(O)cc1 | 43.9 µM (inactive) | 22.2 µM (inactive) | 30.9 | 26 µM (inactive) | 64 µM (inactive) | 35.6 µM (inactive) | 31 µM (inactive) |  | 41.7 µM (inactive) | > 100 µM (inactive) | 22 µM (inactive) | 46.9 µM (inactive) | 21.3 µM (inactive) | 28.3 µM (inactive) | 30.6 µM (inactive) | 21 µM (inactive) | 22.6 µM (inactive) | 42.2 µM (inactive) | 53 µM (inactive) | 56.8 µM (inactive) |
| COC(=O)c1sc2c(c1C(=O)OC)/C(=N/c1ccc(OC)cc1)S/C2=N\c1ccc(OC)cc1 | 0.7 µM (active) | 1.69 µM (inactive) | 0.452 | 0.245 µM (active) | 0.789 µM (active) | 0.258 µM (active) | 1.08 µM (active) | 1.33 µM (inactive) | 1.71 µM (inactive) | 1.35 µM (inactive) | 0.944 µM (active) | 1.68 µM (inactive) | 0.274 µM (active) | 1.37 µM (inactive) | 0.644 µM (active) | 1.52 µM (inactive) | 0.224 µM (active) | 0.982 µM (active) | 1.62 µM (inactive) | 1.32 µM (inactive) |
| Nc1nccc(NCC2(CO)CCC2)n1 | > 100 µM (inactive) | > 100 µM (inactive) | > 100 | > 100 µM (inactive) | > 100 µM (inactive) | > 100 µM (inactive) | 68.9 µM (inactive) | > 100 µM (inactive) | > 100 µM (inactive) |  | > 100 µM (inactive) | > 100 µM (inactive) | > 100 µM (inactive) | > 100 µM (inactive) | > 100 µM (inactive) |  | > 100 µM (inactive) | > 100 µM (inactive) | 36.7 µM (inactive) | > 100 µM (inactive) |
| CC1(C)C=C(/C=N/Nc2ccc(Br)cc2)C(C#N)=C(O)C1(C#N)C#N | 19.8 µM (inactive) | 24.5 µM (inactive) |  | 26.1 µM (inactive) | 63 µM (inactive) | 64.6 µM (inactive) | 26.5 µM (inactive) | 33.1 µM (inactive) | 45.2 µM (inactive) | 40 µM (inactive) | 52.5 µM (inactive) | > 100 µM (inactive) | 55.2 µM (inactive) | 81.8 µM (inactive) | 59.8 µM (inactive) | > 100 µM (inactive) | 36.5 µM (inactive) | 40.9 µM (inactive) | 83.6 µM (inactive) | 31.8 µM (inactive) |
| NP1(Oc2ccc(F)cc2)=NP(N)(Oc2ccc(F)cc2)=NP(Oc2ccc(F)cc2)(Oc2ccc(F)cc2)=N1 (stereo not drawn) | 6.64 µM (inactive) | 3.19 µM (inactive) | 3.81 | 5.09 µM (inactive) | 9.68 µM (inactive) | 6.84 µM (inactive) | 2.94 µM (inactive) | 3.7 µM (inactive) | 6.17 µM (inactive) |  | 3.5 µM (inactive) | 4.4 µM (inactive) | 14.5 µM (inactive) | 12.4 µM (inactive) | 6.18 µM (inactive) | 10.9 µM (inactive) | 12.4 µM (inactive) | 2.4 µM (inactive) | 2.77 µM (inactive) | 12.3 µM (inactive) |
